In patent US9062124B2, “GIP-based mixed agonists for treatment of metabolic disorders and obesity” (priority 2008, dated 2015):
Where a SMILES comes first, the peptide text is derived from it. Bridges are numbered along the chain shown (N, C = ends). [ ]: non-standard residue; d: D form. Aib = CC(C)(N)C(=O)O

Key:
Assay type in all cases: cell-based
glucagon receptor = molecular target: T1, glucagon receptor (Homo sapiens, UniProt P47871); test: cAMP synthesis functional assay (firefly luciferase reporter in HEK293 cells), glucagon receptor; conditions: for EC50: Glucagon Receptor EC50, cAMP luciferase reporter assay as in Example 16
T1 construct: expressed in transfected cells; host or cells: HEK293

GLP-1 receptor = molecular target: T2, GLP-1 receptor (Homo sapiens, UniProt P43220); test: cAMP synthesis functional assay (firefly luciferase reporter in HEK293 cells), GLP-1 receptor
T2 construct: expressed in transfected cells; host or cells: HEK293

GIP receptor = molecular target: T3, GIP receptor (Homo sapiens, UniProt P48546); test: cAMP synthesis functional assay (firefly luciferase reporter in HEK293 cells), GIP receptor
T3 construct: expressed in transfected cells; host or cells: HEK293
T3 sequence (P48546 22-466): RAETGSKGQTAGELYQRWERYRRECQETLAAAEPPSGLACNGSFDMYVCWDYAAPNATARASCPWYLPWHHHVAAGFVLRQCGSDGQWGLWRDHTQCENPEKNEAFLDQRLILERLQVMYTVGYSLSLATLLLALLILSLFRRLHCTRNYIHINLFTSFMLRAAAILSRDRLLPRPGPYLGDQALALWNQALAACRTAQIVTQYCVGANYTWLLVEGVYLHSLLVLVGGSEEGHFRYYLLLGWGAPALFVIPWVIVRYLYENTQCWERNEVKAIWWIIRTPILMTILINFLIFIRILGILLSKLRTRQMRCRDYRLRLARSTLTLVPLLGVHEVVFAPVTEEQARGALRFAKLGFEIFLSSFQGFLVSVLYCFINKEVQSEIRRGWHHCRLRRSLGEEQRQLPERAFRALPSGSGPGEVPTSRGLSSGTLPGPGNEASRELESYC

[1] = system: glucagon receptor, GLP-1 receptor or GIP receptor; test: Agonist profile across receptors assigned from the cAMP reporter assay data; conditions: assigned from the in vitro EC50 data of Tables 1-4
[2] = relative to the standard (Std.) EC50 of the same run
[3] = GLP-1 Receptor EC50, cAMP luciferase reporter assay as in Example 16
[4] = Table 1, relative to the native hormone of the indicated receptor

T1 sequence (P47871 26-477): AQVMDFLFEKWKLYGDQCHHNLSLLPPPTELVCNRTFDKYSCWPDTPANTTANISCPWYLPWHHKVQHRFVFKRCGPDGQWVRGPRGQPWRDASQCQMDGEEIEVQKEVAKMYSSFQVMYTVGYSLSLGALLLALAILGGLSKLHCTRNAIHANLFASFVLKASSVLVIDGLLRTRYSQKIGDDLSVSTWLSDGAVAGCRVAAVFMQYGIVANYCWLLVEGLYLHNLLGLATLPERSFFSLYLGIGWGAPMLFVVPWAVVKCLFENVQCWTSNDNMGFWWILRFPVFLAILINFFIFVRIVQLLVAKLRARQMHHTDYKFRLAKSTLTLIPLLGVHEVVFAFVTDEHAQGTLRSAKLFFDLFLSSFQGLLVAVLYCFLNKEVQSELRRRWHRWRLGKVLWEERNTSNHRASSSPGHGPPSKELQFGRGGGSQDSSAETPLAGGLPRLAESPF
T2 sequence (P43220 24-463, species assumed): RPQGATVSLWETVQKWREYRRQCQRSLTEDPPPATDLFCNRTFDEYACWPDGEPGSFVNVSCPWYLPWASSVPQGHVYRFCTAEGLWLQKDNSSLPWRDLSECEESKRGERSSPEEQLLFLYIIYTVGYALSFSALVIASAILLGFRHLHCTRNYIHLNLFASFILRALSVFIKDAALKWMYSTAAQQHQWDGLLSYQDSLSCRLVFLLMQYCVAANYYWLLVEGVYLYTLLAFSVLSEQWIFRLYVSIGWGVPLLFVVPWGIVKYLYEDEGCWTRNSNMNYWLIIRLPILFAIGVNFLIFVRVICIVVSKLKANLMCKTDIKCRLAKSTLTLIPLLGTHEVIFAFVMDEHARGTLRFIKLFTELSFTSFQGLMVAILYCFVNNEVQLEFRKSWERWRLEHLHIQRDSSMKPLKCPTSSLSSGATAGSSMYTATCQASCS

Q: CC[C@H](C)[C@H](NC(=O)[C@H](CO)NC(=O)[C@H](CCCCN)NC(=O)[C@H](CC(=O)O)NC(=O)[C@H](CO)NC(=O)[C@@H](NC(=O)[C@H](Cc1ccccc1)NC(=O)[C@@H](NC(=O)CNC(=O)[C@H](CCC(=O)O)NC(=O)C(C)(C)NC(=O)[C@@H](N)Cc1ccc(O)cc1)[C@@H](C)O)[C@@H](C)O)C(=O)N[C@@H](Cc1ccc(O)cc1)C(=O)N[C@@H](CC(C)C)C(=O)N[C@@H](CC(=O)O)C(=O)N[C@@H](CCCCN)C(=O)N[C@@H](CCC(N)=O)C(=O)N[C@@H](C)C(=O)N[C@@H](C)C(=O)NC(C)(C)C(=O)N[C@@H](CCC(=O)O)C(=O)N[C@@H](Cc1ccccc1)C(=O)N[C@H](C(=O)N[C@@H](CC(N)=O)C(=O)N[C@@H](Cc1c[nH]c2ccccc12)C(=O)N[C@@H](CC(C)C)C(=O)N[C@@H](CC(C)C)C(=O)N[C@@H](C)C(=O)NCC(N)=O)C(C)C [mt-285] (H-Y[Aib]EGTFTSDKSIYLDKQAA[Aib]EFVNWLLAG-NH2; N-terminus assumed) was tested. Which EC50 (glucagon receptor) did it give?
A: The EC50 was 12.6 nM.

Q: What about the “Glucagon Receptor relative activity” value (glucagon receptor; [2]) of the same molecule?
A: The value was 0.23%.

Q: And the EC50 (GLP-1 receptor; [3])?
A: Its EC50 is 0.784 nM.

Q: And the “GLP-1 Receptor relative activity” value (GLP-1 receptor; [2])?
A: The value was 0.75%.

Q: And the “GIP Receptor relative activity” value (GIP receptor; [2])?
A: Its value is 36.43%.

Q: What about the “receptor activity profile (glucagon / GLP-1 / GIP agonism)” value [1] of the same molecule?
A: The value was “exhibited activity at only the GIP receptor”.

Q: CC[C@H](C)[C@H](NC(=O)[C@H](CO)NC(=O)[C@H](Cc1ccc(O)cc1)NC(=O)[C@H](CC(=O)O)NC(=O)[C@H](CO)NC(=O)[C@@H](NC(=O)[C@H](Cc1ccccc1)NC(=O)[C@@H](NC(=O)CNC(=O)[C@H](CCC(=O)O)NC(=O)[C@H](C)NC(=O)[C@@H](N)Cc1ccc(O)cc1)[C@@H](C)O)[C@@H](C)O)C(=O)N[C@@H](Cc1ccc(O)cc1)C(=O)N[C@@H](CC(C)C)C(=O)N[C@@H](CC(=O)O)C(=O)N[C@H]1CCC(=O)NCCCC[C@@H](C(=O)N[C@@H](CCC(=O)O)C(=O)N[C@@H](Cc2ccccc2)C(=O)N[C@H](C(=O)N[C@@H](CC(N)=O)C(=O)N[C@@H](Cc2c[nH]c3ccccc23)C(=O)N[C@@H](CC(C)C)C(=O)N[C@@H](CC(C)C)C(=O)N[C@@H](C)C(=O)NCC(=O)NCC(=O)N2CCC[C@H]2C(=O)N[C@@H](CO)C(=O)N[C@@H](CO)C(=O)NCC(=O)N[C@@H](C)C(=O)N2CCC[C@H]2C(=O)N2CCC[C@H]2C(=O)N2CCC[C@H]2C(=O)N[C@@H](CO)C(N)=O)C(C)C)NC(=O)[C@H](C)NC(=O)[C@H](C)NC(=O)[C@H](CCC(N)=O)NC1=O [mt-149] (H-YAEGTFTSDYSIYLDEQAAKEFVNWLLAGGPSSGAPPPS-NH2; lactam 16-20; N-terminus assumed) was tested. Which “Glucagon Receptor relative activity” value (glucagon receptor; [4]) did it give?
A: Its value is 0.64%.

Q: What about the EC50 (GLP-1 receptor; GLP-1 Receptor EC50, nM, Table 1) of the same molecule?
A: Its EC50 is 0.036 nM.

Q: What about the “GLP-1 Receptor relative activity” value (GLP-1 receptor; [4]) of the same molecule?
A: Its value is 97.53%.

Q: What about the “GIP Receptor relative activity” value (GIP receptor; [4]) of the same molecule?
A: Its value is 91.18%.

Q: What about the “receptor activity profile (glucagon / GLP-1 / GIP agonism)” value [1] of the same molecule?
A: The value was “exemplary GLP-1/GIP co-agonist peptides”.

Q: CC[C@H](C)[C@H](NC(=O)[C@H](CO)NC(=O)[C@H](Cc1ccc(O)cc1)NC(=O)[C@H](CC(=O)O)NC(=O)[C@H](CO)NC(=O)[C@@H](NC(=O)[C@H](Cc1ccccc1)NC(=O)[C@@H](NC(=O)CNC(=O)[C@H](CCC(N)=O)NC(=O)C(C)(C)NC(=O)[C@@H](N)Cc1ccc(O)cc1)[C@@H](C)O)[C@@H](C)O)C(=O)N[C@@H](Cc1ccc(O)cc1)C(=O)N[C@@H](CC(C)C)C(=O)N[C@@H](CC(=O)O)C(=O)N[C@H]1CCC(=O)NCCCC[C@@H](C(=O)N[C@@H](CCC(=O)O)C(=O)N[C@@H](Cc2ccccc2)C(=O)N[C@H](C(=O)N[C@@H](CC(N)=O)C(=O)N[C@@H](Cc2c[nH]c3ccccc23)C(=O)N[C@@H](CC(C)C)C(=O)N[C@@H](CC(C)C)C(=O)N[C@@H](C)C(=O)NCC(N)=O)C(C)C)NC(=O)[C@H](C)NC(=O)[C@H](C)NC(=O)[C@H](CCC(N)=O)NC1=O [mt-164] (H-Y[Aib]QGTFTSDYSIYLDEQAAKEFVNWLLAG-NH2; lactam 16-20; N-terminus assumed) was tested. Which “Glucagon Receptor relative activity” value (glucagon receptor; [4]) did it give?
A: The value was 109.93%.

Q: And the “GLP-1 Receptor relative activity” value (GLP-1 receptor; [4])?
A: Its value is 56.52%.

Q: And the EC50 (GIP receptor; GIP Receptor EC50, nM, Table 1)?
A: The EC50 was 0.164 nM.

Q: What about the “GIP Receptor relative activity” value (GIP receptor; [4]) of the same molecule?
A: Its value is 16.46%.

Q: What about the “receptor activity profile (glucagon / GLP-1 / GIP agonism)” value [1] of the same molecule?
A: The value was “exemplary GLP-1/GIP/glucagon triagonist peptides”.

Q: How did the EC50 (glucagon receptor) turn out when CCCCCCCCCCCCCC(=O)NCCCC[C@H](NC(=O)[C@H](CO)NC(=O)[C@@H]1CCCN1C(=O)[C@@H]1CCCN1C(=O)[C@@H]1CCCN1C(=O)[C@H](C)NC(=O)CNC(=O)[C@H](CO)NC(=O)[C@H](CO)NC(=O)[C@@H]1CCCN1C(=O)CNC(=O)CNC(=O)[C@H](C)NC(=O)[C@H](CC(C)C)NC(=O)[C@H](CC(C)C)NC(=O)[C@H](Cc1c[nH]c2ccccc12)NC(=O)[C@H](CS)NC(=O)[C@@H](NC(=O)[C@H](Cc1ccccc1)NC(=O)[C@H](CCC(=O)O)NC(=O)C(C)(C)NC(=O)[C@H](C)NC(=O)[C@H](C)NC(=O)[C@H](CCC(N)=O)NC(=O)[C@H](CCCCN)NC(=O)[C@H](CC(=O)O)NC(=O)[C@H](CC(C)C)NC(=O)[C@H](Cc1ccc(O)cc1)NC(=O)[C@@H](NC(=O)[C@H](CO)NC(=O)[C@H](Cc1ccc(O)cc1)NC(=O)[C@H](CC(=O)O)NC(=O)[C@H](CO)NC(=O)[C@@H](NC(=O)[C@H](Cc1ccccc1)NC(=O)[C@@H](NC(=O)CNC(=O)[C@H](CCC(=O)O)NC(=O)C(C)(C)NC(=O)[C@@H](N)Cc1ccc(O)cc1)[C@@H](C)O)[C@@H](C)O)[C@@H](C)CC)C(C)C)C(N)=O [mt-306] was run?
A: The EC50 was 1.5 nM.

Q: What about the “Glucagon Receptor relative activity” value (glucagon receptor; [2]) of the same molecule?
A: The value was 3.20%.

Q: What about the “GLP-1 Receptor relative activity” value (GLP-1 receptor; [2]) of the same molecule?
A: Its value is 80.60%.

Q: What about the “GIP Receptor relative activity” value (GIP receptor; [2]) of the same molecule?
A: Its value is 254.69%.

Q: What about the “receptor activity profile (glucagon / GLP-1 / GIP agonism)” value [1] of the same molecule?
A: The value was “exhibited activity at the GIP, GLP-1, and glucagon receptors”.

Q: What does the source list for CC[C@H](C)[C@H](NC(=O)[C@H](CO)NC(=O)[C@H](Cc1ccc(O)cc1)NC(=O)[C@H](CC(=O)O)NC(=O)[C@H](CO)NC(=O)[C@H](CO)NC(=O)[C@H](Cc1ccccc1)NC(=O)[C@@H](NC(=O)CNC(=O)[C@H](CCC(N)=O)NC(=O)C(C)(C)NC(=O)[C@@H](N)Cc1ccc(O)cc1)[C@@H](C)O)C(=O)N[C@@H](Cc1ccc(O)cc1)C(=O)N[C@@H](CC(C)C)C(=O)N[C@@H](CC(=O)O)C(=O)N[C@@H](CCCCN)C(=O)N[C@@H](CCC(N)=O)C(=O)N[C@@H](C)C(=O)N[C@@H](C)C(=O)NC(C)(C)C(=O)N[C@@H](CCC(=O)O)C(=O)N[C@@H](Cc1ccccc1)C(=O)N[C@H](C(=O)N[C@@H](CC(N)=O)C(=O)N[C@@H](Cc1c[nH]c2ccccc12)C(=O)N[C@@H](CC(C)C)C(=O)N[C@@H](CC(C)C)C(=O)N[C@@H](C)C(=O)NCC(=O)NCC(=O)N1CCC[C@H]1C(=O)N[C@@H](CO)C(=O)N[C@@H](CO)C(=O)NCC(=O)N[C@@H](C)C(=O)N1CCC[C@H]1C(=O)N1CCC[C@H]1C(=O)N1CCC[C@H]1C(=O)N[C@@H](CO)C(=O)N[C@@H](CS)C(N)=O)C(C)C [mt-324] (H-Y[Aib]QGTFSSDYSIYLDKQAA[Aib]EFVNWLLAGGPSSGAPPPSC-NH2; N-terminus assumed)?
A: Glucagon Receptor relative activity (glucagon receptor; [2]): 6.41%; GLP-1 Receptor relative activity (GLP-1 receptor; [2]): 9.68%; GIP Receptor relative activity (GIP receptor; [2]): 30.23%; receptor activity profile (glucagon / GLP-1 / GIP agonism) [1]: exhibited activity at the GIP, GLP-1, and glucagon receptors

Q: CC[C@H](C)[C@H](NC(=O)[C@H](CO)NC(=O)[C@H](Cc1ccc(O)cc1)NC(=O)[C@H](CC(=O)O)NC(=O)[C@H](CO)NC(=O)[C@@H](NC(=O)[C@H](Cc1ccccc1)NC(=O)[C@@H](NC(=O)CNC(=O)[C@H](CCC(N)=O)NC(=O)C(C)(C)NC(=O)[C@@H](N)Cc1ccc(O)cc1)[C@@H](C)O)[C@@H](C)O)C(=O)N[C@@H](Cc1ccc(O)cc1)C(=O)N[C@@H](CC(C)C)C(=O)N[C@@H](CC(=O)O)C(=O)N[C@@H](CCCN)C(=O)N[C@@H](CCC(N)=O)C(=O)N[C@@H](C)C(=O)N[C@@H](C)C(=O)NC(C)(C)C(=O)N[C@@H](CCC(=O)O)C(=O)N[C@@H](Cc1ccccc1)C(=O)N[C@H](C(=O)N[C@@H](CC(N)=O)C(=O)N[C@@H](Cc1c[nH]c2ccccc12)C(=O)N[C@@H](CC(C)C)C(=O)N[C@@H](CC(C)C)C(=O)N[C@@H](C)C(=O)NCC(=O)NCC(=O)N1CCC[C@H]1C(=O)N[C@@H](CO)C(=O)N[C@@H](CO)C(=O)NCC(=O)N[C@@H](C)C(=O)N1CCC[C@H]1C(=O)N1CCC[C@H]1C(=O)N1CCC[C@H]1C(=O)N[C@@H](CO)C(=O)N[C@@H](CS)C(N)=O)C(C)C [mt-275] was tested. Which “Glucagon Receptor relative activity” value (glucagon receptor; [2]) did it give?
A: The value was 62.15%.

Q: What about the EC50 (GLP-1 receptor; [3]) of the same molecule?
A: The EC50 was 0.0068 nM.

Q: And the “GLP-1 Receptor relative activity” value (GLP-1 receptor; [2])?
A: Its value is 104.41%.

Q: And the “GIP Receptor relative activity” value (GIP receptor; [2])?
A: Its value is 112.10%.

Q: And the “receptor activity profile (glucagon / GLP-1 / GIP agonism)” value [1]?
A: Its value is “exhibited activity at the GIP, GLP-1, and glucagon receptors”.
